What is called ED50 is the dose at which the effect has come halfway, by size or by number of responders. One may read the IC50 as the midpoint of a concentration-inhibition curve. A lower IC50 goes with higher potency.

The test system of data set [1] is actively sensitized guinea pigs. Briefly: Inhibition of antigen-induced immediate asthmatic response (airway resistance, Konzett-Rossler method). Format: in vivo, Male Hartley outbred guinea pigs. The settings on record: Cavia porcellus; orally, 60 minutes prior to antigen-challenge, ovalbumin-sensitized guinea pigs, Probit method. The method, then:
Male Hartley outbred guinea pigs were sensitized by administering intraperitoneally physiological saline (0.5 ml) containing ovalbumin (1 mg, antigen) and 5×10^9 inactivated Bordetella pertussis dead cells (adjuvant). Eleven to thirteen days after the first sensitization, 0.05 ml of an ovalbumin solution (1 mg/ml) (ovalbumin is dissolved in physiological saline) was administered to the lateroabdominal region of each guinea pig intracutaneously. An establishment of sensitization was checked relying on cutaneous reaction. Only guinea pigs wherein significant reddening responses occurred 5 to 10 minutes later were employed in the next measurement test for airway resistance.
The guinea pigs (3 animals per group) actively sensitized in the above step (1) were employed to measure for their airway pressure according to Konzett-Rossler method (Arch. Exp. Path. Pharmakol., 195, 71 (1940)).
Thirteen days after the final sensitization, guinea pigs fasted overnight, and were on the next day anesthetized with a pentobarbital solution (30 mg/1.2 ml/kg, dissolved in physiological saline, intraperitoneal administration). After the guinea pigs were fixed in a supine position, their trachea was incised followed by insertion with one port of a 4-port cannula. Among the remaining 3 ports, 2 ports were connected to an artificial respirator (Model 683, Harvard). The animals were ventilated with 10 ml/kg of air per ventilation at a rate of 60 beats/min via the artificial respirator from the cannula. One port remainder was connected to a respiratory amplifier (AR-601G, Nihon Kohden, Japan) via an airflow resistance tube (TV-241T, Nihon Kohden, Japan) and a differential pressure transducer (TP-602T, Nihon Kohden, Japan) connected with a control box (RY-111S, Nihon Kohden, Japan). From a catheter inserted into a left carotid artery, blood pressures were monitored with a blood pressure measurement unit (AP641G, NEC Corp., Japan) via a blood pressure transducer (TP-300T, Nihon Kohden, Japan), and heart rates were recorded on a thermal recorder (WT-685G, Nihon Kohden, Japan), relying on blood pressure pulse waves after being led to a cardiograph unit (AT601G, Nihon Kohden, Japan).
After airway pressure became stable, an ovalbumin solution. (1 mg/ml, dissolved in physiological saline) was administered at a dose of 1 ml/kg via a tube with which the right jugular vein of guinea pigs was cannulated.
Each test compound was suspended in 0.5% CMC—Na solution and administered orally with an oral sound at a dose of 0.03 to 20 mg/2 ml/kg 60 minutes prior to the antigen-challenge. Control groups received only 0.5% CMC—Na solution in an equivalent amount. The pentobarbital-anesthetization and tracheal incision were conducted 30 minutes prior to the antigen-challenge.
Each percent reduction of increase in airway resistance (each test compound-administered group versus control group) was calculated according to the equation given below. ED50 was obtained by Probit method.

The test system of the next data set is TNF-α production. Briefly: Inhibition of TNF-α production in galactosamine- and LPS-stimulation. Format: in vivo, C3H/HeN mice. To be noted: Mus musculus; oral, 1 hour before i.v. galactosamine 800 mg/kg and LPS 5 μg/kg; serum TNF-α by ELISA 1 hour later. How it is done:
A suspension of each test compound in 0.5% CMC—Na solution was administered orally to C3H/HeN mice at a dose of 0.10 to 10 mg/kg. One hour later, the animals received intravenously galactosamine at a dose of 800 mg/kg and LPS at a dose 5 μg/kg to raise the induction of TNF-α production. One hour later after the galactosamine- and LPS-administration, amounts of TNF-α in serum samples were measured by ELISA.
(In general: An ELISA detects its analyte on a solid surface through an enzyme-linked reagent.)

Data set [2] has as its system PDE IV isozymes separated from U937 culture cells. Briefly: PDE IV inhibition ([3H]-cAMP hydrolysis). Format: biochemical. To be noted: cAMP 1 μM as substrate, 30° C., 20 minutes, Probit method. How it is done:
PDE IV isozymes as used herein were separated from U937 culture cells by using an anion exchange chromatography. Type IV PDE isozyme was admixed with ethylene glycol (EG) to adjust the final EG concentration to 30%, then stored at −20° C. and diluted when used. The enzymatic activity for PDE IV was measured using cAMP as a substrate.
Each test compound was dissolved in DMSO to adjust the final concentration to 1% (2.5 μl/tube). Incubation buffer solution (pH7.5): • Tris-HCl (50 mM), magnesium chloride (6 mM), dithiothreitol (2.5 mM), 5-nucleotidase (4 μg/ml), bovine serum albumin (0.23 mg/ml), and cAMP (1 μM).
A mixture of the aforementioned test compound solution and the buffer solution was incubated at 30° C. for 20 minutes. The reaction was quenched by admixing with 1 ml of anion exchange resin slurry (AG1-X8, 200–400 meshes, chloride form; Bio-Rad) to absorb unreacted substrates. After the reaction stopped, the mixture was centrifuged at 800×g for 10 minutes, and the resulting supernatant was collected with vials in 250 μl aliquots. To each vial was added 5 ml of ACS-II (scintillator, Amersham). The radioactivity was measured with a liquid scintillator counter for [^3H]-adenosine and set as the PDE IV activity.

In a further data set the test system is Male Marshall ferrets. Description: Emetic action. The settings on record: oral, observed within 12 hours. Format: in vivo. How it is done:
Male Marshall ferrets (each group consisting of 3 animals) as used herein fasted overnight. On the next day, a suspension of each test compound in 0.5% CMC—Na solution was administered orally to the animals. […] Next, each maximum tolerance dose against emesis was obtained. SB207499 was used for the reference compound in this assay.

In a further data set the test system is ICR mice. Description: Toxicology study. Type of data set: in vivo. To be noted: oral 300 mg/10 ml/kg. How it is done: Each Compound (Example Nos. 7 and 8) was administered orally to ICR mice (7 animals per group) as a test compound. […] Each test compound was suspended in 0.5% CMC—Na solution and given orally to the animal at a dose of 300 mg/10 ml/kg.

Consider `COc1ccc([C@]2(C#N)CC[C@@H](C(=O)O)CC2)cc1OC1CCCC1` [SB207499, cis-4-cyano-4-[3-(cyclopentyloxy)-4-methoxyphenyl]cyclohexane-1-carboxylic acid, reference compound], for which the values for the ED50 (in data set [1]; with TNF-α production) were 20 mg/kg and 0.9 mg/kg, respectively. In addition, in data set [2], half-maximal inhibition (IC50) required 0.03 µM. Also, the “Emetic activity at a half of the ED50 dose” value in the data set with Male Marshall ferrets (a half of the ED50 dose of Assay Example 2) was “elicitation of emetic activity has been found”.
Consider `Nc1cccc(-n2c(=O)c(CCCc3ccncc3)cc3cccnc32)c1` [Example No. 7, 1-(3-Aminophenyl)-3-[3-(pyridin-4-yl)propyl]-1,8-naphthyridin-2(1H)-one], for which the ED50 in data set [1] turned out to be 1.1 mg/kg. The same molecule displayed an ED50 in the data set on TNF-α production of 0.45 mg/kg. Inhibition in data set [2] was half-maximal at 0.23 µM (IC50). In the data set on ICR mice, the Body weight gain result is given as “No reduction of body weight gains was observed”, the Mortality entry is “None of the animals were died” and the “Other parameters (general health conditions)” value is reported as “no abnormality was observed”. Moreover, in the data set with Male Marshall ferrets (dose = ED50 of Assay Example 2), the “Emetic actions at asthmatic response-inhibitory ED50 level” value is given as “no observation for emetic actions”.

The values are drawn from US7115623B2, “PDE IV inhibitors” (Aska Pharmaceuticals Co., Ltd., priority 2001, dated 2006).
